Data from the Kinase Knowledgebase extract (Sharma et al. 2016).
pIC50: −log10 of the molar value.

Legend:
MAPK14 (human) [1] = biological target: MAPK14 (human) (UniProt Q16539); test: Inhibition of TNF Production (PBMC)
MAPK14 (human) [2] = biological target: MAPK14 (human) (UniProt Q16539); test: Inhibition of TNF Production (U937 Cells)
MAPK14 = MAPK14 (UniProt Q16539); test: p38 alpha Inhibition
Chain of MAPK14 (Q16539 whole entry, looked up): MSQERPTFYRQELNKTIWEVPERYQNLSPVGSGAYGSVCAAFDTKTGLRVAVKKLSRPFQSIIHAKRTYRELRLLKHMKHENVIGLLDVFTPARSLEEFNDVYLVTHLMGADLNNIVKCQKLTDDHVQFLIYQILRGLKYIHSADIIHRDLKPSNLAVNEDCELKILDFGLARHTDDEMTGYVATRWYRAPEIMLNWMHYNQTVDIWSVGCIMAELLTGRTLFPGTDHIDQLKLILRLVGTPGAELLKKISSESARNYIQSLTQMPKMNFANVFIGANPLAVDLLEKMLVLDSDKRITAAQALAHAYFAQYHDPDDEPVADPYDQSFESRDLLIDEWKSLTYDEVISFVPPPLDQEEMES

Chain of MAPK14 (human) (Q16539 whole entry, looked up): as above

Row | Structure (SMILES) | pIC50 (MAPK14 (human) [1]) | pIC50 (MAPK14 (human) [2]) | pIC50 (MAPK14) | ID50 (MAPK14 (human) [1])
1 | Cc1cccc(-n2nc(C)cc2-c2ccnc(NCc3ccccc3)c2)c1 | 7.00 |  |  | 
2 | O=C(O)c1cnn(-c2ccc(F)cc2)c1-c1ccncc1 |  | 5.00 |  | 
3 | Cc1cccc(-n2nc(C)cc2-c2ccnc(C#N)c2)c1 | 5.77 | 5.78 |  | 
4 | Cc1cnn(Cc2ccccc2)c1-c1ccncc1 | < 5.00 |  |  | 
5 | Cc1ccc(-n2nc(C)cc2-c2ccnc(NCc3ccccc3)c2)cc1 | 5.96 |  |  | 
6 | CCCc1cnn(-c2cccc(F)c2)c1-c1ccncc1 | 5.89 | 6.08 | 5.83 | 
7 | Cc1cccc(-n2nc(C)cc2-c2ccnc(C(N)=O)c2)c1 | 5.30 |  |  | 
8 | Fc1ccc(-n2nccc2-c2ccnc(NCc3ccccc3)c2)cc1 | 5.89 | 6.62 |  | 
9 | Cc1cccc(-n2nc(C)cc2-c2ccnc(OCc3ccccc3)c2)c1 | < 5.00 | 5.58 |  | 
10 | Cc1cnn(-c2ccc(F)cc2)c1-c1ccncc1 | 7.00 | 5.00 |  | 
11 | Cc1cc(-c2ccnc(N=[N+]=[N-])c2)n(-c2cccc(F)c2)n1 | 5.66 |  |  | 
12 | Cc1cccc(-n2nc(C)cc2-c2ccnc(NCCc3ccccc3)c2)c1 | 7.70 | 7.30 |  | 
13 | Cc1cc(-c2ccnc(Cl)c2)n(-c2cccc(F)c2)n1 |  | < 5.00 |  | 
14 | CCc1cnn(-c2cccc(F)c2)c1-c1ccncc1 | 6.15 | 5.94 | 4.78 | 
15 | Cc1cc(-c2ccnc(NCc3cccnc3)c2)n(-c2cccc(F)c2)n1 | 6.22 |  |  | 
16 | Cc1cccc(-n2nc(C)cc2-c2ccnc(N(C)C)c2)c1 | 5.47 | 5.00 |  | 
17 | NC(=O)c1cnn(-c2ccc(F)cc2)c1-c1ccncc1 | < 5.00 | < 5.00 |  | 
18 | Cc1ccc(-n2nc(C)cc2-c2ccnc(Cl)c2)cc1 | 5.54 |  |  | 
19 | Cc1cc(-c2ccnc(NCc3ccccc3)c2)n(-c2ccc(Cl)cc2)n1 | 6.52 | 6.70 |  | 
20 | Cc1cc(-c2ccnc(C#N)c2)n(-c2ccc(F)cc2)n1 | < 5.00 | < 5.00 |  | 
21 | Cc1cccc(-n2nc(C)cc2-c2cc[nH]c(=O)c2)c1 | 5.62 | 5.00 |  | 
22 | Fc1ccc(-n2nccc2-c2ccnc(Cl)c2)cc1 | 5.09 | 5.00 |  | 

Continued, values first:

Row | pIC50 (MAPK14 (human) [1]) | pIC50 (MAPK14 (human) [2]) | pIC50 (MAPK14) | ID50 (MAPK14 (human) [1]) | Structure (SMILES)
23 | 5.72 | 5.88 |  |  | COc1cc(-c2cc(C)nn2-c2cccc(C)c2)ccn1
24 | < 5.00 | 5.00 |  |  | Fc1ccc(-n2ncc(N3CCNCC3)c2-c2ccncc2)cc1
25 | 7.00 | 6.68 |  |  | Cc1cccc(-n2nc(C)cc2-c2ccnc(NCCO)c2)c1
26 | 7.00 | 6.32 |  |  | Cc1cc(-c2ccnc(NCCO)c2)n(-c2ccc(Cl)cc2)n1
27 | 7.00 | 4.75 |  |  | CNc1cc(-c2cc(C)nn2-c2ccc(C)cc2)ccn1
28 | < 5.00 |  |  |  | Cc1ccc(-n2nc(C)cc2-c2ccnc(N(C)C)c2)cc1
29 | 6.22 | 6.18 |  |  | Cc1cccc(-n2ncc(C)c2-c2ccncc2)c1
30 | < 5.00 | 5.00 |  |  | Cc1cccc(-n2nc(C)cc2-c2ccnc(N(C)Cc3ccccc3)c2)c1
31 |  | 5.00 |  |  | COC(=O)c1cnn(-c2ccc(F)cc2)c1-c1ccncc1
32 | < 5.00 | 5.00 |  |  | CCNc1cc(-c2ccncc2)n(-c2ccc(F)cc2)n1
33 |  | 6.07 |  | 100 nM | Cc1cc(-c2ccnc(NCCc3ccccc3)c2)n(-c2ccc(Cl)cc2)n1
34 | 6.30 |  |  |  | Cc1cccc(-n2nc(C)cc2-c2ccnc(N)c2)c1
35 | 5.82 |  |  |  | Cc1ccc(-n2nc(C)cc2-c2ccnc(NCc3cccnc3)c2)cc1
36 | < 5.00 |  |  |  | Cc1cccc(-n2nc(C)cc2-c2ccnc(S(C)(=O)=O)c2)c1
37 | 6.70 |  |  |  | Cc1ccc(-n2nc(C)cc2-c2ccnc(NCCO)c2)cc1
38 | 5.40 |  |  |  | Cc1cnn(-c2cccc(F)c2)c1-c1ccncc1
39 | 6.10 |  |  |  | Cc1cccc(-n2nc(C)cc2-c2ccnc(N(C)CCc3ccccc3)c2)c1
40 | 5.00 |  |  |  | Fc1ccc(-n2nccc2-c2ccnc(NCCc3ccccc3)c2)cc1
41 | < 5.00 |  |  |  | Cc1ccc(-n2nc(C)cc2-c2cccc(N)c2)cc1
42 | < 5.00 | 5.00 |  |  | O=C(c1cnn(-c2ccc(F)cc2)c1-c1ccncc1)N1CCNCC1
43 | 6.70 | 6.14 |  |  | CCNc1cc(-c2cc(C)nn2-c2ccc(C)cc2)ccn1
